The results in this text go back to PMC9719519, “Non-classical ferroptosis inhibition by a small molecule targeting PHB2” (Nature Communications, 2022).

Assay in all cases: biochemical
What all share (parameters): Eurofins recombinant human kinase profiling, remaining kinase activity as % of control, 10 uM ATP
Holding throughout (conditions): ATP 10 uM; read-out: %Ctrl@10 μM

One assay addresses T1, ALK2(h) (Homo sapiens, UniProt Q04771).
T1 construct: gene ACVR1
In outline:
(§1)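 Activity measured in a commercial panel of 401 recombinant human protein kinases run as a kinase profiling service.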

The target of a further assay is T2, Abl (Q252H) (h) (Homo sapiens, UniProt P00519, Q252H).
T2 construct: gene ABL1
In outline: as §1

Another assay addresses T3, Aurora-B(h) (Homo sapiens, UniProt Q96GD4).
T3 construct: gene AURKB
In outline:
as §1

The target in the next assay is CDK2/cyclinE(h) (Homo sapiens, UniProt P24941). In outline:
as §1

The target in the next assay is EphA5(h) (Homo sapiens, UniProt P54756). A digest of the protocol: as §1
EphA5(h), sequence (P54756 whole entry): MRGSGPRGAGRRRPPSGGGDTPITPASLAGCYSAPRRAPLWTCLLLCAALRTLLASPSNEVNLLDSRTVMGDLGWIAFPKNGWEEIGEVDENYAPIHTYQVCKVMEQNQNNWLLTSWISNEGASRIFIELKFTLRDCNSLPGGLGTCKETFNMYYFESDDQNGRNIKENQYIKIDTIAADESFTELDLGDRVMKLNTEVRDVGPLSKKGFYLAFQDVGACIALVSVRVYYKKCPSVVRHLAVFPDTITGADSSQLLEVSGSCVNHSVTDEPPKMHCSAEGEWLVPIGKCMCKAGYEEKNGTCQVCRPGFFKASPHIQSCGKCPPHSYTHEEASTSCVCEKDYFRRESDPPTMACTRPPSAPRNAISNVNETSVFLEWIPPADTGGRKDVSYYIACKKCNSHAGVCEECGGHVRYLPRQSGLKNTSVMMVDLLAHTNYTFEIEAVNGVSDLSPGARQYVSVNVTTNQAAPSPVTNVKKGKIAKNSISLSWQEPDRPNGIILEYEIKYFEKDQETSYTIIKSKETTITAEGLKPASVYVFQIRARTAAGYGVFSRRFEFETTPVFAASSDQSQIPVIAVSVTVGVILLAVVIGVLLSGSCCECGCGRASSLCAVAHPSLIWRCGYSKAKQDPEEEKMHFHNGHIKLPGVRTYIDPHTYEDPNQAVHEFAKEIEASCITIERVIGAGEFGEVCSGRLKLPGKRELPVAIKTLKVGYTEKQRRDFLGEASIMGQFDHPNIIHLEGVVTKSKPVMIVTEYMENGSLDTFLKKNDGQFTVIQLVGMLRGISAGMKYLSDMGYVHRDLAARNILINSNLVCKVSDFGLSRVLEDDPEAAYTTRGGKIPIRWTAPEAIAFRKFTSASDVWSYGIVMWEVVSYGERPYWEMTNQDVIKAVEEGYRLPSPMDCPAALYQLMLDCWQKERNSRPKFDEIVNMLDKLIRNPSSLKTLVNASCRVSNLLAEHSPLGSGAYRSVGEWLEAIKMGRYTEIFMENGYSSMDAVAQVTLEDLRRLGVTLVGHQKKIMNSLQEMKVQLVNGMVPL
The target of a further assay is FGFR3(h) (Homo sapiens, UniProt P22607). In outline:
as §1

In another assay the target is T4, Fms(Y969C)(h) (Homo sapiens, UniProt P07333, Y969C).
T4 construct: gene CSF1R
In outline:
as §1

Another assay concerns the target GRK3(h) (Homo sapiens, UniProt P35626). A digest of the protocol: as §1
For another assay, the target named is T5, JNK1α1(h) (Homo sapiens, UniProt P45983).
T5 construct: gene MAPK8; isoform alpha1
A digest of the protocol:
as §1

In the next assay the target is Lck(h) activated (Homo sapiens, UniProt P06239). In outline: as §1
Lck(h) activated, sequence (P06239 whole entry): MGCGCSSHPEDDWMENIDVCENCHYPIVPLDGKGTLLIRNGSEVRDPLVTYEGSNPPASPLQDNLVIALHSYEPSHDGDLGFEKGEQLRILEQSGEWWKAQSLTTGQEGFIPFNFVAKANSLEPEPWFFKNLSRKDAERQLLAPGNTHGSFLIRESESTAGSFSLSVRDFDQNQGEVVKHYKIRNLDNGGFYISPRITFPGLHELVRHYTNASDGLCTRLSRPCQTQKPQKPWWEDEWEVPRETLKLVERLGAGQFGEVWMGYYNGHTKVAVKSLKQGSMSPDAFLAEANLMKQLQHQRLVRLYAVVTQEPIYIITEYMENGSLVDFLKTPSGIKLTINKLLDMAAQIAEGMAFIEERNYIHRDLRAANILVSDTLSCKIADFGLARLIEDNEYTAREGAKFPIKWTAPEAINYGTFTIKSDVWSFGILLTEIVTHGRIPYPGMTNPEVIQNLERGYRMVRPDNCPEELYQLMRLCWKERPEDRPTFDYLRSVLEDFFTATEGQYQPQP
In a further assay the target is MAK(h) (Homo sapiens, UniProt P20794). A digest of the protocol:
as §1

The target in another assay is T6, MAPKAP-K3(h) (Homo sapiens, UniProt Q16644).
T6 construct: gene MAPKAPK3
A digest of the protocol: as §1

The target of another assay is T7, MEK2(h) (Homo sapiens, UniProt P36507).
T7 construct: gene MAP2K2
T7 sequence (P36507 whole entry): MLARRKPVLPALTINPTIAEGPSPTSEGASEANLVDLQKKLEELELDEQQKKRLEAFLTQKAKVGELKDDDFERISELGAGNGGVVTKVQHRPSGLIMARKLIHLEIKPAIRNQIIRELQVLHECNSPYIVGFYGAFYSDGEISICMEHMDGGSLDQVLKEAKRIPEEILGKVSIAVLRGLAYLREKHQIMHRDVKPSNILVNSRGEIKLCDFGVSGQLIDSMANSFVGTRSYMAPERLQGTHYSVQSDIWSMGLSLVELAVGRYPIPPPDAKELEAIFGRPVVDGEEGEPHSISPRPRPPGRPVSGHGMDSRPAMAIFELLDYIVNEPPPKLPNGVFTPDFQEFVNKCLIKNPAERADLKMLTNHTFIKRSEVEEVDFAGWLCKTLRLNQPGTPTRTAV
A digest of the protocol:
as §1

The target of a further assay is MYO3B(h) (Homo sapiens, UniProt Q8WXR4). In outline:
as §1

For the next assay, the target named is Met(h) (Homo sapiens, UniProt P08581). A digest of the protocol: as §1
For another assay, the target named is T8, PKCε(h) (Homo sapiens, UniProt Q02156).
T8 construct: gene PRKCE
A digest of the protocol: as §1

In another assay the target is T9, PKCθ(h) (Homo sapiens, UniProt Q04759).
T9 construct: gene PRKCQ
A digest of the protocol: as §1

Another assay addresses T10, Snk(h) (Homo sapiens, UniProt Q9NYY3).
T10 construct: gene PLK2
A digest of the protocol: as §1

For the next assay, the target named is T11, TAK1(h) (Homo sapiens, UniProt O43318).
T11 construct: gene MAP3K7
A digest of the protocol:
as §1

The target in a further assay is T12, TAO1(h) (Homo sapiens, UniProt Q7L7X3).
T12 construct: gene TAOK1
T12 sequence (Q7L7X3 whole entry): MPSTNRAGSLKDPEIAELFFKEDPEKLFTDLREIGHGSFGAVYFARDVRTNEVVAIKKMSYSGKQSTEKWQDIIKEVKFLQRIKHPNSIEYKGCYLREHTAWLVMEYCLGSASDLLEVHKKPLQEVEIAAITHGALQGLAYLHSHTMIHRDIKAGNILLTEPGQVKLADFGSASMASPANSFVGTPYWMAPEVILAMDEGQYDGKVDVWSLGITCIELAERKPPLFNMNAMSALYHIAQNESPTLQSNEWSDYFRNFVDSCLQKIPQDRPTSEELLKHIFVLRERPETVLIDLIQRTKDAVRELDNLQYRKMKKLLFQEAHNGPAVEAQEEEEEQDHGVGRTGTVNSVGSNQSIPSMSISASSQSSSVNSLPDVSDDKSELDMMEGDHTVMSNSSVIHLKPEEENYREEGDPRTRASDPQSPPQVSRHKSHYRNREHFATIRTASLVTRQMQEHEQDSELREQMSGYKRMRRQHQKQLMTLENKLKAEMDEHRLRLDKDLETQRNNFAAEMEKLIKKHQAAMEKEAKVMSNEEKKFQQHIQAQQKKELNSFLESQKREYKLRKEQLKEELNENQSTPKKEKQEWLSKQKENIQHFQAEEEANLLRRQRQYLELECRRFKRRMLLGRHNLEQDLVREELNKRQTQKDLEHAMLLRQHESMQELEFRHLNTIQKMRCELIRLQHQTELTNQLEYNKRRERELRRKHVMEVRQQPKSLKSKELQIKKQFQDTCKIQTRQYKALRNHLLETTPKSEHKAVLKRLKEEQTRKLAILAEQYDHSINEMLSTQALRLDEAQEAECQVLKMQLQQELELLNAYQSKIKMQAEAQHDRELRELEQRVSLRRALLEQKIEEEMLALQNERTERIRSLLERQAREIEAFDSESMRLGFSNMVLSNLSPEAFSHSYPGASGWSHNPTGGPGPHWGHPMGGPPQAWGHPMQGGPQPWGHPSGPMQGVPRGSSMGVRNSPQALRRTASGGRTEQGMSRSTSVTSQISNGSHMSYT
A digest of the protocol: as §1

The target in the next assay is TTK(h) (Homo sapiens, UniProt P33981). A digest of the protocol: as §1
In a further assay the target is T13, Tie2(Y897S)(h) (Homo sapiens, UniProt Q02763, Y897S).
T13 construct: gene TEK
In outline:
as §1

MYO3B(h), sequence (Q8WXR4 whole entry): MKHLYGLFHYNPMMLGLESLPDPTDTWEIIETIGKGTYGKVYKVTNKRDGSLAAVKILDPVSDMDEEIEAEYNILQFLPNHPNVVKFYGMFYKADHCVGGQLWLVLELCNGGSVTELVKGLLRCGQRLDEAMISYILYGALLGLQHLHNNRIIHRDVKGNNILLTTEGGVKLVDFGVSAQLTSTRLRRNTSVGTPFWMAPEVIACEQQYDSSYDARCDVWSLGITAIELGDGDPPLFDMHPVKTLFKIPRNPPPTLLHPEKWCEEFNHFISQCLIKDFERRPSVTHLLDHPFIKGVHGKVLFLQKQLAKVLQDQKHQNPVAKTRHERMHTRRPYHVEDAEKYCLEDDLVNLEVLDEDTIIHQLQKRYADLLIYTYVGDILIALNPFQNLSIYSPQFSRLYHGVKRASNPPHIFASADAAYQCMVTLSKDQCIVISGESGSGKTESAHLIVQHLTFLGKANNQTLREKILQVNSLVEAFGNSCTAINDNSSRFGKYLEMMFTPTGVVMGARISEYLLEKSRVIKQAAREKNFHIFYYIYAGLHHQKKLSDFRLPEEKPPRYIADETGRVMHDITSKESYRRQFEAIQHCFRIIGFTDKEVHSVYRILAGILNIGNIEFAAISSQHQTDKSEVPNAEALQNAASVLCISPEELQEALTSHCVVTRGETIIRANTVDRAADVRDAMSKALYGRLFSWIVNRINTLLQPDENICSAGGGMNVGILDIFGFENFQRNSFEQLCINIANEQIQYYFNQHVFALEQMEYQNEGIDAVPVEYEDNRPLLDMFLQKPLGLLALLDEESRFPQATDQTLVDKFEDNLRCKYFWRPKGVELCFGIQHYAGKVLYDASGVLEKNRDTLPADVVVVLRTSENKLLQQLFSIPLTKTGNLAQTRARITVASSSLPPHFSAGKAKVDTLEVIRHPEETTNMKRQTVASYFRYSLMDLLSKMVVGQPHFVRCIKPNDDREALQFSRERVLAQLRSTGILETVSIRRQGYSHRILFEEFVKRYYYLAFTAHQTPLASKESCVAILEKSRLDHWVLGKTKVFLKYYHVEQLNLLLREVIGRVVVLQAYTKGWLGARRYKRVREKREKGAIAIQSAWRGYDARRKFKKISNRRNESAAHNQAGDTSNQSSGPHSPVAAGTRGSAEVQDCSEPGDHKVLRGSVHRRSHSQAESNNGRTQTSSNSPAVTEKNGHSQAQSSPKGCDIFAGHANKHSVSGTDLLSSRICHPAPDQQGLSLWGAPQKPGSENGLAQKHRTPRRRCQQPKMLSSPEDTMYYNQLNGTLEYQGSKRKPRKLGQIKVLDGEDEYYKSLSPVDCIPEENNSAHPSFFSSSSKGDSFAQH
MAK(h), sequence (P20794 whole entry): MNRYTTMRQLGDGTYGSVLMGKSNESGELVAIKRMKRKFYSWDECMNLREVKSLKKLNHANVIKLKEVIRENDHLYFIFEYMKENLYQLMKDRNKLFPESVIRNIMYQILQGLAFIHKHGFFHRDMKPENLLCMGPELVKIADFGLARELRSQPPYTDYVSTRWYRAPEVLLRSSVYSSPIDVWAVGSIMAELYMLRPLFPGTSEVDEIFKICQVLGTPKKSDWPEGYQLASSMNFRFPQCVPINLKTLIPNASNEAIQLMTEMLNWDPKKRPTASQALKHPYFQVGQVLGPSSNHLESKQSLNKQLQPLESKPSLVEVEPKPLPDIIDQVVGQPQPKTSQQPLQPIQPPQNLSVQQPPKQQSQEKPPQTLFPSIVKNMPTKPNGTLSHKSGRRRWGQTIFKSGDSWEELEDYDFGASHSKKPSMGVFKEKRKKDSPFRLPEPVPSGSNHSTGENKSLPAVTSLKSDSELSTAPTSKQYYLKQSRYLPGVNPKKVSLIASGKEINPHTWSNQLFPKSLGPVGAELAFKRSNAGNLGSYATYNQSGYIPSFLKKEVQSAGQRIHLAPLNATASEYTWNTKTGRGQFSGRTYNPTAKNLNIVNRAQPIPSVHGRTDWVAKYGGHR

Turning to `C1=C(c2nc(-c3cnn(C4CCNCC4)c3)cn3cc(-c4ccccc4)nc23)CCOC1` [YL-939], the remaining activity at 10 µM was 88% on ALK2(h); 122% on Abl (Q252H) (h); 89% on Aurora-B(h); 85% at CDK2/cyclinE(h); 96% on EphA5(h); 83% at FGFR3(h). Besides, the remaining activity at 10 µM at Fms(Y969C)(h) was 107%; at GRK3(h), 92%; on JNK1α1(h), 109%; on Lck(h) activated, 77%; on MAK(h), 74%; at MAPKAP-K3(h) it was 102%. For the same compound, the remaining activity at 10 µM on MEK2(h) came out at 89%; on MYO3B(h), 89%; on Met(h), 54%; at PKCε(h) it was 95%; at PKCθ(h), 93%; on Snk(h), 112%. Also, the remaining activity at 10 µM amounted to 77% on TAK1(h), 81% on TAO1(h), 102% on TTK(h) and 91% on Tie2(Y897S)(h).
